Key:
[1] = human
[2] = human, serum
[3] = Highest frequency of moderate liver toxicity observed during clinical trials, expressed as a percentage. [column '% BIOL' in source]; conditions: human
[4] = human; remark: listed apart in the source
[5] = human; remark: listed apart in the source
[6] = Presence of at least one case with successful reintroduction. [column 'REINT' in source]; conditions: human
[7] = human; remark: listed apart in the source
[8] = Highest frequency of acute liver toxicity observed during clinical trials, expressed as a percentage. [column '% AIGUE' in source]; conditions: human
[9] = human, serum, 4383 h
[10] = human, serum; remark: listed apart in the source
[11] = human; remark: listed apart in the source
[12] = human; remark: listed apart in the source
[13] = human; remark: listed apart in the source
[14] = human; remark: listed apart in the source
[15] = human; remark: listed apart in the source
[16] = Comments (NB not yet translated). [column 'COMMENTAIRES' in source]; conditions: human
[17] = Times to onset, minimal and maximal, observed in the indexed observations. [column 'DELAI' in source]; conditions: human
[18] = Proposed mechanism(s) of liver damage. [column 'MEC' in source]; conditions: human
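For Hepatotoxicity (association with vascular disease) in this document: count of indexed literature references reporting vascular liver injury in humans, e.g. peliosis hepatitis, hepatic veno-occlusive disease or Budd-Chiari syndrome.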
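For Hepatotoxicity (benign tumour) in this document: value is a count of indexed literature references citing a benign tumour confirmed by histopathology.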
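For Hepatotoxicity (choleostasis) in this document: human cholestatic liver injury, shown by histopathology or by peak ALT or AST elevation over alkaline phosphatase ratio below 2, value counts indexed literature reports.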
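For Hepatotoxicity (chronic liver disease) in this document: chronic liver injury confirmed by histopathology or persistently raised serum aminotransferase activity beyond 6 months, value given as the count of indexed literature references.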
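For Hepatotoxicity (cirrhosis) in this document: value is a count of indexed literature references reporting cirrhosis confirmed by histopathology.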
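For Hepatotoxicity (cytolytic) in this document: human cytolytic liver injury, shown by histopathology or by a ratio above 5 of peak ALT or AST elevation to alkaline phosphatase elevation, value counts indexed references.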
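For Hepatotoxicity (granulomatous hepatitis) in this document: value is a count of indexed literature references reporting granulomatous liver disease confirmed by histopathology.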
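For Hepatotoxicity (malignant tumour) in this document: malignant tumour confirmed by histopathology, value gives the count of indexed literature references reporting it.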
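For Hepatotoxicity (severe hepatitis) in this document: human clinical data: severe hepatitis, meaning potentially life-threatening liver failure or clinically observed cases, the value counts how many indexed literature references report it.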
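For Hepatotoxicity (steatosis) in this document: steatosis confirmed by histopathology, value is the count of indexed references.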

Compound | Hepatotoxicity (cytolytic) [1] | Hepatotoxicity (acute) [2] | Hepatotoxicity (moderate) [3] | Hepatotoxicity (association with vascular disease) [4] | Hepatotoxicity (benign tumour) [5] | Hepatotoxicity (severe hepatitis) [7] | Hepatotoxicity (acute) [8] | Hepatotoxicity (chronic liver disease) [9] | Hepatotoxicity (moderate) [10] | Hepatotoxicity (choleostasis) [11] | Hepatotoxicity (steatosis) [12] | Hepatotoxicity (granulomatous hepatitis) [13] | Hepatotoxicity (malignant tumour) [14] | Hepatotoxicity (cirrhosis) [15] | Hepatotoxicity (comment) [16] | Hepatotoxicity (time to onset) [17] | Hepatotoxicity (mechanism) [18] | other results
O=C1CN2Cc3c(ccc(Cl)c3Cl)N=C2N1 [ANAGRELIDE] | 0 | 1 | 0.2% | 0 | 0 | 0 | 0% | 0 | 1 | 1 | 0 | 0 | 0 | 0 | – | – | – | Hepatotoxicity (successful reintroduction) [6]: yes
CN1CCN(C(c2ccccc2)c2ccccc2)CC1 [CYCLIZINE] | 0 | 1 | 0% | 0 | 0 | 0 | 0% | 0 | 0 | 0 | 0 | 0 | 0 | 0 | – | – | – | Hepatotoxicity (successful reintroduction) [6]: yes
CC(C(=O)Nc1cc(-c2ccccc2)nn1-c1ccccc1)N(C)C (stereo not given) [DIFENAMIZOLE] | 1 | 1 | 0% | 0 | 0 | 1 | 0% | 0 | 0 | 0 | 0 | 0 | 0 | 0 | – | – | – | Hepatotoxicity (successful reintroduction) [6]: yes
Nc1ccc(S(=O)(=O)Nc2ncccn2)cc1 [SULFADIAZINE] | – | 8 | – | 0 | 0 | – | – | 0 | 2 | – | 0 | – | 0 | 0 | CHOLESTASE_PROLONGEE | 1 week - 2 months | – | Hepatotoxicity (cytolytic) ([1]; Liver): 3; Hepatotoxicity (moderate) ([3]; Liver): 2.7%; Hepatotoxicity (mechanism) ([18]; Liver): Allergic, Reactive metabolite; Hepatotoxicity (severe hepatitis) ([7]; Liver): 1; Hepatotoxicity (acute) ([8]; Liver): 0%; Hepatotoxicity (choleostasis) ([11]; Liver): 1; Hepatotoxicity (granulomatous hepatitis) ([13]; Liver): 0
Cc1noc(NS(=O)(=O)c2ccc(N)cc2)c1C [SULFISOXAZOLE] | 1 | 4 | – | 0 | 0 | – | – | 0 | 0 | 2 | 0 | 0 | 0 | 0 | CHOLANGITE RC/COTRIMOXAZOLE | 2 days - 6 days | Allergic | Hepatotoxicity (moderate) ([3]; Liver): 0%; Hepatotoxicity (severe hepatitis) ([7]; Liver): 1; Hepatotoxicity (acute) ([8]; Liver): 0%
CC(S)C(=O)NCC(=O)O (stereo not given) [TIOPRONIN] | 1 | 10 | 0% | 0 | 0 | 0 | 2.1% | 3 | 1 | 8 | 1 | 0 | 0 | 0 | CHOLESTASE_PROLONGEE #CBP | 19 days - 2 years | Allergic | –
Cc1cccc(C)c1NC(=O)C(C)N (stereo not given) [TOCAINIDE] | 5 | 6 | 1.7% | 0 | 0 | 0 | 0% | 0 | 2 | 4 | 1 | 1 | 0 | 0 | AC_ANTI-N/-ML | 1 month - 2 months | Allergic | –
CC1=C(/C=C/C(C)=C/C=C/C(C)=C/C(=O)O)C(C)(C)CCC1 [TRETINOIN] | 3 | 10 | 85% | 0 | 0 | 2 | 16.7% | 0 | 26 | 4 | 0 | 0 | 0 | 0 | CHOLANGITE | 10 days - 38 days | Dose-dependant | –
CC(CN(C)C)CN1c2ccccc2CCc2ccccc21 (stereo not given) [TRIMIPRAMINE] | 1 | 2 | 0% | 0 | 0 | 0 | 0% | 0 | 2 | 0 | 0 | 0 | 0 | 0 | RC/DESIPRAMINE/CYAMEMAZINE | 2 weeks - 3 weeks | Dose-dependant | –
Cc1c(C)c2c(c(C)c1O)CCC(C)(COc1ccc(CC3SC(=O)NC3=O)cc1)O2 (stereo not given) [TROGLITAZONE] | 27 | 36 | 5.8% | 0 | 0 | 21 | 5% | 1 | 18 | 4 | 2 | 1 | 0 | 0 | CHOLESTASE_PROLONGEE | 3 days - 2.3 years | Mitochondrial toxicity | –
GEMTUZUMAB OZOGAMICIN | 10 | 11 | 47.8% | 19 | 0 | 1 | 38.3% | 0 | 7 | 2 | 0 | 0 | 0 | 0 | MVO | 2 days - 6 months | Dose-dependant | –
GOLD | 7 | 52 | 40% | 0 | 0 | 5 | 0.8% | 1 | 22 | 44 | 0 | 1 | 0 | 0 | AC_ANTI-ADN/-ML/-N HLA-DR3 PERICHOLANGITE | 1 week - 5 years | Allergic, Dose-dependant | –
INTERFERON ALFA | 2 | 2 | 58% | 0 | 0 | 1 | 0% | 0 | 21 | 1 | 3 | 0 | 0 | 1 | AGGRAVATION_HEPATITE_AUTOIMMUNE/B/DELTA AC_ANTI-ML/LKM/CH | 8 days - 8 months | Dose-dependant | –
